Where two headings read alike, the source gives them in different places.
Columns and labels:
[1] = Solubility / saturation point of Triclosan in alcohol and water; assay type: physicochemical
From the text: In particular embodiments, an alcohol solution comprising triclosan is delivered to a hydrated acellular biologic matrix, e.g., a biologic matrix treated with a 40% SDA solution. In other embodiments, the matrix is hydrated with e.g., water, saline solution, and the like. Without being bound to theory, it is thought that the triclosan will partially separate from the alcohol phase due to the triclosan's great differential solubility (alcohol soluble and water insoluble) and deposit as an undissolved agent on the surface of and within the biologic tissue. Therefore, after implantation of the triclosan-treated biologic tissue into a subject, the triclosan will slowly exude or leach off the biologic tissue and out of the alcohol layer directly into the wound zone where bacteria may be collecting. Moreover, some of the triclosan may be held by the insoluble water phase and assist in this slow release. In this regard, where the soluble form of triclosan in alcohol would typically be active right away and dissipate within 8-12 hours in a transplant subject, such as a human abdominal hernia patient, it is thought that the precipitated triclosan in a transplanted treated acellular matrix of the subject invention will reside longer at the wound site, e.g., up to about 24-48 hours after transplantation, thereby increasing the effective amount of anti-infective available at the wound site. […]

[2] = cited from earlier work

saturation point ([1]; 25% alcohol): 600 ppm
saturation point ([1]; 30% alcohol): 1700 ppm
SMILES: Oc1cc(Cl)ccc1Oc1ccc(Cl)cc1Cl [Triclosan, 2,4,4′-trichloro-2′-hydroxy-diphenyl-ether]
solubility, in words ([2]; in alcohol): very soluble
solubility, in words ([2]; in water): very insoluble

From patent US20140072629A1, “BIOLOGIC MATRICES COMPRISING ANTI-INFECTIVE, METHODS AND COMPOSITIONS RELATED THERETO” (MUSCULOSKELETAL TRANSPLANT FOUNDATION, priority 2008, published 2014)
